Assay results: patent publication US20070259939A1, “USING NALTREXONE AS A MULTI-PURPOSE HEALTH SUPPLEMENT TO IMPROVE THE HUMAN CONDITION AND PREVENTING MULTIPLE DISEASES AND INFIRMITIES BY STIMULATING IMMUNE SYSTEM VITALITY AND ROBUSTNESS” (ACCELERATED TECHNOLOGIES, priority 2006, published 2007)

Legend:
cancer patients = conditions: low dose naltrexone; cited from earlier work
beta-endorphins = conditions: small doses each night; following days; patients who initially had deficient endorphin levels; cited from earlier work
[1] = low dose levels; cited from earlier work
alcohol cravings = assay: inhibition of alcohol cravings by low dose naltrexone; format: in vivo, human
From the text: Naltrexone is already known to help cure addictive behaviors, such as alcoholism, opiate, narcotic and tobacco addiction. With respect to the treatment of alcohol addiction, naltrexone may be effective because it eliminates the neural positive reinforcement normally experienced in the brain by blocking the receptors that provide the stimulatory effect felt from alcohol. As a result of the lack of positive reinforcement, there is no internal incentive to drink alcohol. In a similar manner, in another embodiment of the invention, the daily administration of low dose naltrexone may greatly reduce or eliminate the tendency to engage in addictive behavior by preventing its onset. This may be accomplished by diminishing any potential internal rewards for using chemical substances in the first place. […] The diminished desire for alcohol resulting from a low dose of naltrexone may be effective for more than 24 hours, thus for example a dose administered at 7:00 pm one evening may continue to inhibit alcohol cravings throughout the following evening. A person in need of curbing an alcoholic appetite may take a pill, either before or along with the drink, and discover no desire for a second or third drink. To further eliminate an alcoholic appetite, a series of 1.5 mg naltrexone doses may be taken without alcohol, starting for example at about 6:00 pm.

O=C1CC[C@@]2(O)[C@H]3Cc4ccc(O)c5c4[C@@]2(CCN3CC2CC2)[C@H]1O5 [naltrexone]
cancer patients with a positive effect (for example stopping the spread of tumors) (cancer patients): ≤ 65% | cancer patients with remission (cancer patients): 30% | increase in beta-endorphins circulating in the blood (beta-endorphins): 200-300% | side effects [1]: not known to have any important side effects | effect on alcohol cravings (alcohol cravings; low dosage, around 4.5 mg): greatly inhibit alcohol cravings | duration of diminished desire for alcohol (alcohol cravings; low dose of naltrexone): more than 24 hours
